Measured values from PubChem BioAssay (NCI).
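Briefly, cells in 96-well plates were exposed to five compound concentrations for 48 h, and endpoints were estimated by linear interpolation. Here, GI50 denotes the concentration required for 50% inhibition of growth. TGI is the concentration that stops growth completely.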

What was measured:
Test in all cases: growth of human tumour cells (NCI), 48 h
COLO 205 colon = test system: COLO 205 colon
HOP-62 NSCLC = test system: HOP-62 NSCLC
U251 CNS = test system: U251 CNS
HOP-92 NSCLC = test system: HOP-92 NSCLC
HCT-116 colon = test system: HCT-116 colon
MDA-MB-435 = test system: MDA-MB-435
A549 NSCLC = test system: A549 NSCLC
MCF7 breast = test system: MCF7 breast
UACC-257 melanoma = test system: UACC-257 melanoma
SK-MEL-5 melanoma = test system: SK-MEL-5 melanoma
KM12 colon = test system: KM12 colon
OVCAR-5 ovarian = test system: OVCAR-5 ovarian
PC-3 prostate = test system: PC-3 prostate
ACHN renal = test system: ACHN renal
EKVX NSCLC = test system: EKVX NSCLC
SN12C renal = test system: SN12C renal
SNB-19 CNS = test system: SNB-19 CNS
OVCAR-3 ovarian = test system: OVCAR-3 ovarian
HCC-2998 colon = test system: HCC-2998 colon
K-562 leukemia = test system: K-562 leukemia
RXF 393 renal = test system: RXF 393 renal
LOX IMVI melanoma = test system: LOX IMVI melanoma
UACC-62 melanoma = test system: UACC-62 melanoma
HT29 colon = test system: HT29 colon
HCT-15 colon = test system: HCT-15 colon
RPMI-8226 leukemia = test system: RPMI-8226 leukemia
TK-10 renal = test system: TK-10 renal
SW-620 colon = test system: SW-620 colon
UO-31 renal = test system: UO-31 renal
HL-60(TB) leukemia = test system: HL-60(TB) leukemia
HS 578T breast = test system: HS 578T breast
NCI-H23 lung = test system: NCI-H23 lung
T-47D breast = test system: T-47D breast
SK-MEL-28 melanoma = test system: SK-MEL-28 melanoma
MOLT-4 leukemia = test system: MOLT-4 leukemia
CCRF-CEM leukemia = test system: CCRF-CEM leukemia
OVCAR-8 ovarian = test system: OVCAR-8 ovarian
M14 melanoma = test system: M14 melanoma
SK-MEL-2 melanoma = test system: SK-MEL-2 melanoma
NCI-H226 lung = test system: NCI-H226 lung
SF-268 CNS = test system: SF-268 CNS
786-0 renal = test system: 786-0 renal
NCI-H522 lung = test system: NCI-H522 lung
SF-295 CNS = test system: SF-295 CNS
IGROV1 ovarian = test system: IGROV1 ovarian
CAKI-1 renal = test system: CAKI-1 renal
BT-549 breast = test system: BT-549 breast
NCI-H460 lung = test system: NCI-H460 lung

## COc1ccc(OC)c(-c2cc(-c3ccc(Cl)cc3)nn2-c2ccc(S(=O)(=O)NC(C)=O)cc2)c1
COLO 205 colon
  GI50: 18.2 µM
  TGI: 46.7 µM
HOP-62 NSCLC
  GI50: 10.5 µM
  TGI: 22.2 µM
U251 CNS
  GI50: 2.9 µM
  TGI: 10.3 µM
HOP-92 NSCLC
  GI50: 10.2 µM
  TGI: 33.2 µM
HCT-116 colon
  GI50: 2.84 µM
  TGI: 11.2 µM
MDA-MB-435
  GI50: 45.3 µM
  TGI: > 100 µM
A549 NSCLC
  GI50: 28.6 µM
  TGI: > 100 µM
MCF7 breast
  GI50: 26.4 µM
  TGI: > 100 µM
UACC-257 melanoma
  GI50: 16.8 µM
  TGI: 34.2 µM
SK-MEL-5 melanoma
  GI50: 2.07 µM
  TGI: 15.5 µM
KM12 colon
  GI50: 20.3 µM
  TGI: 46.2 µM
OVCAR-5 ovarian
  GI50: 5.97 µM
  TGI: 19.3 µM
PC-3 prostate
  GI50: 3.61 µM
  TGI: 21.9 µM
ACHN renal
  GI50: 3.23 µM
  TGI: 11.1 µM
EKVX NSCLC
  GI50: 14.3 µM
  TGI: 28 µM
SN12C renal
  GI50: 3.02 µM
  TGI: 10.9 µM
SNB-19 CNS
  GI50: 10.6 µM
  TGI: 28.7 µM
OVCAR-3 ovarian
  GI50: 25.4 µM
  TGI: 64.7 µM
HCC-2998 colon
  GI50: 1.71 µM
  TGI: 6.93 µM
K-562 leukemia
  GI50: 3.18 µM
  TGI: > 100 µM
RXF 393 renal
  GI50: 23.1 µM
  TGI: > 100 µM
LOX IMVI melanoma
  GI50: 1.79 µM
  TGI: 3.65 µM
UACC-62 melanoma
  GI50: 3.22 µM
  TGI: 11.2 µM
HT29 colon
  GI50: 5.54 µM
  TGI: > 100 µM
HCT-15 colon
  GI50: 3.29 µM
  TGI: 18.8 µM
RPMI-8226 leukemia
  GI50: 4.75 µM
  TGI: 7.5 µM
TK-10 renal
  GI50: 19.3 µM
  TGI: 38.2 µM
SW-620 colon
  GI50: 5.39 µM
  TGI: 22.2 µM
UO-31 renal
  GI50: 34.8 µM
  TGI: > 100 µM
HL-60(TB) leukemia
  GI50: 3.7 µM
  TGI: 41.9 µM
HS 578T breast
  GI50: 38.2 µM
  TGI: > 100 µM
NCI-H23 lung
  GI50: 11.3 µM
  TGI: 25.6 µM
T-47D breast
  GI50: 13.1 µM
  TGI: 36.1 µM
SK-MEL-28 melanoma
  GI50: 21.3 µM
  TGI: 57.9 µM
MOLT-4 leukemia
  GI50: 5.62 µM
  TGI: 27.8 µM
CCRF-CEM leukemia
  GI50: 20 µM
  TGI: 73.5 µM
OVCAR-8 ovarian
  GI50: 21 µM
  TGI: 84.3 µM
M14 melanoma
  GI50: 3.04 µM
  TGI: 8.21 µM
SK-MEL-2 melanoma
  GI50: 26.6 µM
  TGI: 70 µM
NCI-H226 lung
  GI50: 4.07 µM
  TGI: 23.1 µM
SF-268 CNS
  GI50: 21.1 µM
  TGI: 60.9 µM
786-0 renal
  GI50: 3.03 µM
  TGI: 12.1 µM
NCI-H522 lung
  GI50: 32.4 µM
  TGI: > 100 µM
SF-295 CNS
  GI50: 42.8 µM
  TGI: > 100 µM
IGROV1 ovarian
  GI50: 37.2 µM
  TGI: > 100 µM
CAKI-1 renal
  GI50: 37.6 µM
  TGI: > 100 µM
BT-549 breast
  GI50: 4.26 µM
  TGI: 14.7 µM
NCI-H460 lung
  GI50: 29.3 µM
  TGI: > 100 µM
